Laboratory results published in ChEMBL document CHEMBL6096734, “Design, Synthesis and Anti-Inflammatory Evaluation of 3-Substituted 5-Amidobenzoate Derivatives as Novel P2Y14 Receptor Antagonists via Structure-Guided Molecular Hybridization” (J Med Chem, 2025).
Activity calls are given as the source filed them. The calls are words filed in the database; no cut-off is given here.

Key:
[1] = biological target: T1, P2Y purinoceptor 14 (Homo sapiens) (UniProt Q15391); conditions: time 30.0 min
T1 sequence (whole entry): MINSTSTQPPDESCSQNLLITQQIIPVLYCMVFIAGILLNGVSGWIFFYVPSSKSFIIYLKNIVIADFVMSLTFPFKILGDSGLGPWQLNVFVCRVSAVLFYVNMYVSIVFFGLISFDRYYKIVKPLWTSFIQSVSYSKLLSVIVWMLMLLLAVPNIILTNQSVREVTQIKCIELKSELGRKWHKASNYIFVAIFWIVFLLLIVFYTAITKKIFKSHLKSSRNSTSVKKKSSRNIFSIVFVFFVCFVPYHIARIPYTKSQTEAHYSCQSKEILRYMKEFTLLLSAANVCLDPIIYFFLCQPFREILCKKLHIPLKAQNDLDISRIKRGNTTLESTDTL

P2Y purinoceptor 14 = biological target: T2, P2Y purinoceptor 14 (Homo sapiens, UniProt Q15391); test: Antagonist activity at human P2Y14R stably expressed in HEK293 cells assessed as inhibition of UDPG-induced cAMP accumulation at 100 nM incubated for 30 mins in presence of forskolin by cAMP-Glo assay relative to control; assay type: functional, cell-based
T2 sequence (Q15391 whole entry): T1 sequence (whole entry)

Mus musculus [2] = test: Anti-inflammatory activity in LPS-induced male C57BL/6 mouse model of acute […] injury assessed as decrease in neutrophil count in BALF at 2 mg/kg measured after 7 days; assay type: functional, organism-based; conditions: time 7.0 day
Mus musculus [3] = test: Anti-inflammatory activity in LPS-induced male C57BL/6 mouse model of acute […] injury assessed as reduction of interstitial hemorrhage at 2 mg/kg measured after 7 days by H and E staining based analysis; assay type: functional, organism-based; conditions: time 7.0 day
Mus musculus [4] = test: Anti-inflammatory activity in LPS-induced male C57BL/6 mouse model of acute […] injury assessed as reduction of lung edema at 2 mg/kg measured after 7 days by H and E staining based analysis; assay type: functional, organism-based; conditions: time 7.0 day
Mus musculus [5] = test: Anti-inflammatory activity in LPS-induced male C57BL/6 mouse model of acute […] injury assessed as decrease in total WBC count in BALF at 2 mg/kg measured after 7 days; assay type: functional, organism-based; conditions: time 7.0 day
Mus musculus [6] = test: Anti-inflammatory activity in LPS-induced male C57BL/6 mouse model of acute […] injury assessed as decrease in ASC expression at 2 mg/kg measured after 7 days; assay type: functional, organism-based; conditions: time 7.0 day
Mus musculus [7] = test: Anti-inflammatory activity in LPS-induced male C57BL/6 mouse model of acute […] injury assessed as decrease in lymphocyte count in BALF at 2 mg/kg measured after 7 days; assay type: functional, organism-based; conditions: time 7.0 day
Mus musculus [8] = test: Anti-inflammatory activity in LPS-induced male C57BL/6 mouse model of acute […] injury assessed as appearance of tight junction integrity at 2 mg/kg measured after 7 days by ZO-1 staining based immunofluorescence analysis; assay type: functional, organism-based; conditions: time 7.0 day
Mus musculus [9] = test: Anti-inflammatory activity in LPS-induced male C57BL/6 mouse model of acute […] injury assessed as decrease in caspase-1 expression at p10 subunit at 2 mg/kg measured after 7 days; assay type: functional, organism-based; conditions: time 7.0 day
Mus musculus [10] = test: Anti-inflammatory activity in LPS-induced male C57BL/6 mouse model of acute […] injury assessed as reduction of neutrophil infiltration at 2 mg/kg measured after 7 days by H and E staining based analysis; assay type: functional, organism-based; conditions: time 7.0 day
Mus musculus [11] = test: Anti-inflammatory activity in LPS-induced male C57BL/6 mouse model of acute […] injury assessed as reduction in Wet/dry weight ratio at 2 mg/kg measured after 7 days; assay type: functional, organism-based; conditions: time 7.0 day
Mus musculus [12] = test: Anti-inflammatory activity in LPS-induced male C57BL/6 mouse model of acute […] injury assessed as decrease in CXCL10 mRNA expression in lung at 2 mg/kg measured after 7 days by qPCR analysis; assay type: functional, organism-based; conditions: time 7.0 day
Mus musculus [13] = test: Anti-inflammatory activity in LPS-induced male C57BL/6 mouse model of acute […] injury assessed as decrease in caspase-1 expression at p20 subunit at 2 mg/kg measured after 7 days; assay type: functional, organism-based; conditions: time 7.0 day
Mus musculus [14] = test: Anti-inflammatory activity in LPS-induced male C57BL/6 mouse model of acute […] injury assessed as decrease in Ly6G+ neutrophils in lung tissue at 2 mg/kg measured after 7 days by immunofluorescence analysis; assay type: functional, organism-based; conditions: time 7.0 day
Mus musculus [15] = test: Anti-inflammatory activity in LPS-induced male C57BL/6 mouse model of acute […] injury assessed as decrease in CCL2 mRNA expression in lung at 2 mg/kg measured after 7 days by qPCR analysis; assay type: functional, organism-based; conditions: time 7.0 day
Mus musculus [16] = test: Anti-inflammatory activity in LPS-induced male C57BL/6 mouse model of acute […] injury assessed as decrease in F4/80+ macrophage in lung tissue at 2 mg/kg measured after 7 days by immunofluorescence analysis; assay type: functional, organism-based; conditions: time 7.0 day
Mus musculus [17] = test: Anti-inflammatory activity in LPS-induced male C57BL/6 mouse model of acute […] injury assessed as decrease in IL-6 level at 2 mg/kg measured after 7 days; assay type: functional, organism-based; conditions: time 7.0 day
Mus musculus [18] = test: Anti-inflammatory activity in LPS-induced male C57BL/6 mouse model of acute […] injury assessed as decrease in CXCL1 mRNA expression in lung at 2 mg/kg measured after 7 days by qPCR analysis; assay type: functional, organism-based; conditions: time 7.0 day
Mus musculus [19] = test: Anti-inflammatory activity in LPS-induced male C57BL/6 mouse model of acute […] injury assessed as reduction of intravascular congestion at 2 mg/kg measured after 7 days by H and E staining based analysis; assay type: functional, organism-based; conditions: time 7.0 day
Mus musculus [20] = test: Anti-inflammatory activity in LPS-induced male C57BL/6 mouse model of acute […] injury assessed as decrease in CCL2 level in serum at 2 mg/kg measured after 7 days by ELISA method; assay type: functional, organism-based; conditions: time 7.0 day
Mus musculus [21] = test: Anti-inflammatory activity in LPS-induced male C57BL/6 mouse model of acute […] injury assessed as decrease in CXCL1 level in serum at 2 mg/kg measured after 7 days by ELISA method; assay type: functional, organism-based; conditions: time 7.0 day
Mus musculus [22] = test: Anti-inflammatory activity in LPS-induced male C57BL/6 mouse model of acute […] injury assessed as decrease in IL-1 beta level at 2 mg/kg measured after 7 days; assay type: functional, organism-based; conditions: time 7.0 day
Mus musculus [23] = test: Anti-inflammatory activity in LPS-induced male C57BL/6 mouse model of acute […] injury assessed as decrease in GSDMD-N expression at 2 mg/kg measured after 7 days; assay type: functional, organism-based; conditions: time 7.0 day
Mus musculus [24] = test: Anti-inflammatory activity in LPS-induced male C57BL/6 mouse model of acute […] injury assessed as alveolar wall thickening at 2 mg/kg measured after 7 days by H and E staining based analysis; assay type: functional, organism-based; conditions: time 7.0 day
Mus musculus [25] = test: Anti-inflammatory activity in LPS-induced male C57BL/6 mouse model of acute […] injury assessed as decrease MPO level at 2 mg/kg measured after 7 days; assay type: functional, organism-based; conditions: time 7.0 day
Mus musculus [26] = test: Anti-inflammatory activity in LPS-induced male C57BL/6 mouse model of acute […] injury assessed as decrease NE level at 2 mg/kg measured after 7 days; assay type: functional, organism-based; conditions: time 7.0 day
Mus musculus [27] = test: Anti-inflammatory activity in LPS-induced male C57BL/6 mouse model of acute […] injury assessed as decrease in NLRP3 expression at 2 mg/kg measured after 7 days; assay type: functional, organism-based; conditions: time 7.0 day
Mus musculus [28] = test: Anti-inflammatory activity in LPS-induced male C57BL/6 mouse model of acute […] injury assessed as decrease in monocyte count in BALF at 2 mg/kg measured after 7 days; assay type: functional, organism-based; conditions: time 7.0 day
Mus musculus [29] = test: Anti-inflammatory activity in LPS-induced male C57BL/6 mouse model of acute […] injury assessed as decrease dsDNA formation at 2 mg/kg measured after 7 days; assay type: functional, organism-based; conditions: time 7.0 day
Mus musculus [30] = test: Anti-inflammatory activity in LPS-induced male C57BL/6 mouse model of acute […] injury assessed as decrease in TNF-alpha level at 2 mg/kg measured after 7 days; assay type: functional, organism-based; conditions: time 7.0 day
Mus musculus [31] = test: Anti-inflammatory activity in LPS-induced male C57BL/6 mouse model of acute […] injury assessed as decrease CXCL9 mRNA expression in lung at 2 mg/kg measured after 7 days by qPCR analysis; assay type: functional, organism-based; conditions: time 7.0 day
[32] = HEK293, filed as antagonist, dose 100.0 nM

## COC(=O)c1cc(NC(=O)Cn2cccc2)cc(-c2nc3ccccc3o2)c1
[1]; HEK293, dose 100.0 nM
  inhibition: 26.3%

## COc1ccc(CC(=O)Nc2cc(C(=O)O)cc(-c3nc4ccccc4o3)c2)cc1
[1]; [32]
  inhibition: 48%

## COC(=O)c1cc(NC(=O)Cc2ccc(-n3cccc3)cc2)cc(-c2nc3ccccc3o2)c1
[1]; HEK293, dose 100.0 nM
  inhibition: 32.3%

## O=C(Cc1cccs1)Nc1cc(C(=O)O)cc(-c2nc3ccccc3o2)c1
[1]; HEK293, dose 100.0 nM
  inhibition: 39.8%

## COC(=O)c1cc(NC(=O)Cn2cncn2)cc(-c2nc3ccccc3o2)c1
[1]; [32]
  inhibition: 41.5%

## COC(=O)c1cc(NC(=O)Cc2cccs2)cc(-c2nc3ccccc3o2)c1
[1]; HEK293, dose 100.0 nM
  inhibition: 36.5%

## COC(=O)c1cc(NC(=O)Cc2ccc(OC)cc2)cc(-c2nc3ccccc3o2)c1
[1]; HEK293, dose 100.0 nM
  inhibition: 39.3%

## COC(=O)c1cc(NC(=O)Cc2ccc(C)cc2C)cc(-c2nc3ccccc3o2)c1
[1]; [32]
  inhibition: 42.3%

## O=C(Cc1ccc(-n2cccc2)cc1)Nc1cc(C(=O)O)cc(-c2nc3ccccc3o2)c1
[1]; HEK293, dose 100.0 nM
  inhibition: 24.2%

## O=C(Cn1cncn1)Nc1cc(C(=O)O)cc(-c2nc3ccccc3o2)c1
[1]; HEK293, dose 100.0 nM
  inhibition: 38.3%

## Cc1ccc(CC(=O)Nc2cc(C(=O)NCCOCCOCCOCCNC(=O)CCCC[C@H]3SC[C@H]4NC(=O)N[C@H]43)cc(-c3nc4ccccc4[nH]3)c2)cc1
P2Y purinoceptor 14
  IC50: 0.84 nM

## N#Cc1ccc(CC(=O)Nc2cc(C(=O)O)cc(-c3nc4ccccc4o3)c2)cc1
[1]; [32]
  inhibition: 46.1%

## COC(=O)c1cc(NC(=O)Cc2ccc(C)c(C)c2)cc(-c2nc3ccccc3o2)c1
[1]; HEK293, dose 100.0 nM
  inhibition: 34.5%

## O=C(Cc1ccc(F)cc1)Nc1cc(C(=O)O)cc(-c2nc3ccccc3o2)c1
[1]; HEK293, dose 100.0 nM
  inhibition: 30.8%

## COC(=O)c1cc(NC(=O)Cc2ccc(C)cc2)cc(-c2nc3ccccc3s2)c1
[1]; HEK293, dose 100.0 nM
  inhibition: 34.7%

## C[C@@H]1C[C@H]2[C@@H]3CCC4=CC(=O)C=C[C@]4(C)[C@@]3(F)[C@@H](O)C[C@]2(C)[C@@]1(O)C(=O)CO
Mus musculus [2]
  Activity: Active
Mus musculus [3]
  Activity: Active
Mus musculus [4]
  Activity: Active
Mus musculus [5]
  Activity: Active
Mus musculus [6]
  Activity: Active
Mus musculus [7]
  Activity: Active
Mus musculus [8]
  Activity: Active
Mus musculus [9]
  Activity: Active
Mus musculus [10]
  Activity: Active
Mus musculus [11]
  Activity: Active
Mus musculus [12]
  Activity: Active
Mus musculus [13]
  Activity: Active
Mus musculus [14]
  Activity: Active
Mus musculus [15]
  Activity: Active
Mus musculus [16]
  Activity: Active
Mus musculus [17]
  Activity: Active
Mus musculus [18]
  Activity: Active
Mus musculus [19]
  Activity: Active
Mus musculus [20]
  Activity: Active
Mus musculus [21]
  Activity: Active
Mus musculus [22]
  Activity: Active
Mus musculus [23]
  Activity: Active
Mus musculus [24]
  Activity: Active
Mus musculus [25]
  Activity: Active
Mus musculus [26]
  Activity: Active
Mus musculus [27]
  Activity: Active
Mus musculus [28]
  Activity: Active
Mus musculus [29]
  Activity: Active
Mus musculus [30]
  Activity: Active
Mus musculus [31]
  Activity: Active

## O=C(Cc1ccccc1)Nc1cc(C(=O)O)cc(-c2nc3ccccc3o2)c1
[1]; HEK293, dose 100.0 nM
  inhibition: 35.2%

## O=C(Cc1ccc(Br)cc1)Nc1cc(C(=O)O)cc(-c2nc3ccccc3o2)c1
[1]; HEK293, dose 100.0 nM
  inhibition: 20.9%

## O=C(Cc1ccc(C(F)(F)F)cc1)Nc1cc(C(=O)O)cc(-c2nc3ccccc3o2)c1
[1]; HEK293, dose 100.0 nM
  inhibition: 23.1%

## O=C(Cn1cccc1)Nc1cc(C(=O)O)cc(-c2nc3ccccc3o2)c1
[1]; [32]
  inhibition: 43.2%

## COC(=O)c1cc(NC(=O)Cc2ccc(F)cc2)cc(-c2nc3ccccc3o2)c1
[1]; HEK293, dose 100.0 nM
  inhibition: inactive

## COC(=O)c1cc(NC(=O)Cc2ccccc2)cc(-c2nc3ccccc3o2)c1
[1]; [32]
  inhibition: 48.6%
